Reference: patent publication US9029387B2, “Benzonaphthyridinamines as autotaxin inhibitors” (Merck Patent GmbH, priority 2010, dated 2015)

What follows are compounds tested against T1, recombinant autotaxin (Homo sapiens, UniProt Q13822) (assay: Autotaxin test (enzyme test), Amplex Red fluorescence). Settings: IC50 ranges; LPC 75 μM; read-out: Autotaxin inhibition IC50.
T1 construct: made in house; host or cells: Hi5 insect cells (baculovirus)
Assay type: biochemical
Protocol: The autotaxin activity is measured indirectly using Amplex Red reagent. Amplex Red is measured here as fluorogenic indicator for the H2O2 formed. In detail, autotaxin converts the substrate lysophosphatidylcholine (LPC) into phosphocholine and lysophosphatidylic acid (LPA). After this reaction, the phosphocholine is reacted with alkaline phosphatase to give inorganic phosphate and choline. In the next step, choline is oxidised by choline oxidase to give betaine, with formation of H2O2. H2O2 reacts with Amplex Red reagent in the presence of peroxidase (horseradish peroxidase) in a 1:1 stoichiometry and forms the highly fluorescent resorufin. The fluorescence is measured in a reaction-dependent kinetic mode in order that fluorescent signals from possible other fluorescent substances which are not involved in the reaction can be corrected out.
1.5 μl of a standard solution or of the test substances (compounds of the invention) in individual concentrations dissolved in 20 mM Hepes pH 7.2 with a maximum of 7.7% of DMSO are pre-incubated together with 10 μl (16 ng) of highly purified recombinant autotaxin in a black microtitre plate provided with 384 wells at 22° C. for 30 min. The reaction is then initiated by addition of 5 μl of L-α-lysophosphatidylcholine (LPC), where the final concentration of LPC is 75 μM. The mixture is incubated at 37° C. for 90 min. After the incubation, Amplex Red reagent, peroxidase (horseradish peroxidase) and choline oxidase is added, and the fluorescence is immediately measured at 612 nm with excitation of 485 nm in a “Tecan Ultra multimode” reader. The activity of autotaxin is calculated indirectly via detection of the H2O2 formed.
• Microtitre plate: PS microplate, 384 wells, small volume, black Corning, Cat#3677 • Protein: recombinant autotaxin (Baculovirale Hi5 Expression) • Substrate: L-a-lysophosphatidylcholine (chicken egg)); Avanti Polar Lipids #830071 P • Standard: C14 LPA, Avanti Polar Lipids, Cat#857120P • Detection reagent: Amplex Red reagent; Invitrogen #A12222; dissolved in 1.923 ml of DMSO peroxidase type VI-A (horseradish) from Sigma #P6782; dissolved in 7.45 ml of test buffer, choline oxidase; Sigma #C5896; dissolved in 2.47 ml of test buffer • Detection reagent mix: 1:100 dilution of Amplex Red Reagenzt in test buffer • Test buffer: 200 mM Tris HCl, Merck, Cat #1.08219, pH 7.9, 0.1% BSA, lipid-free, Roche Cat#775835 Pharmacological Data Autotaxin Inhibition

`COc1ccc(Cl)cc1NC(=O)CN1CCc2nc3ccccc3c(NC3CCN(C)CC3)c2C1` [Compound 1, N-(5-Chloro-2-methoxyphenyl)-2-[10-(1-methylpiperidin-4-ylamino)-3,4-dihydro-1H-benzo[b]-1,6-naphthyridin-2-yl]acetamide] and `COc1ccc(Cl)cc1NC(=O)CN1CCc2nc3ccccc3c(NCC(=O)N3CCN(C)CC3)c2C1` [Compound 16, N-(5-Chloro-2-methoxyphenyl)-2-{10-[2-(4-methyl-piperazin-1-yl)-2-oxoethylamino]-3,4-dihydro-1H-benzo-[b]-1,6-naphthyridin-2-yl}acetamide] fall in the same range of IC50: 100 to 1000 nM for the first, 100 to 1000 nM for the second.

Compared with `COc1ccc(Cl)cc1NC(=O)CN1CCc2nc3ccccc3c(N)c2C1` [Compound 2, 2-(10-Amino-3,4-dihydro-1H-benzo[b]-1,6-naphthyridin-2-yl)-N-(5-chloro-2-methoxyphenyl)acetamide], `COc1ccc(Cl)cc1NC(=O)CN1CCc2nc3ccccc3c(NCCO)c2C1` [Compound 4, N-(5-Chloro-2-methoxyphenyl)-2-[10-(2-hydroxy-ethylamino)-3,4-dihydro-1H-benzo[b]-1,6-naphthyridin-2-yl]acetamide] is lower in IC50: > 1000 nM for the first, 100 to 1000 nM for the second. The second is the more potent here.

`COc1ccc(Cl)cc1NC(=O)CN1CCc2nc3ccccc3c(NCCN(C)C)c2C1` [Compound 5, N-(5-Chloro-2-methoxyphenyl)-2-[10-(2-dimethylamino-ethylamino)-3,4-dihydro-1H-benzo[b]-1,6-naphthyridin-2-yl]acetamide] and `COc1ccc(Cl)cc1NC(=O)CN1CCc2nc3ccccc3c(NCC(=O)N(C)C)c2C1` [Compound 9, N-(5-Chloro-2-methoxyphenyl)-2-[10-(dimethyl-carbamoylmethylamino)-3,4-dihydro-1H-benzo[b]-1,6-naphthyridin-2-yl]acetamide] fall in the same range of IC50: 100 to 1000 nM for the first, 100 to 1000 nM for the second.

Compared with `COc1ccc(Cl)cc1NC(=O)COC(=O)N1CCc2nc3ccccc3c(NCCO)c2C1` [Compound 7, 10-(2-Hydroxyethylamino)-3,4-dihydro-1H-benzo[b]-1,6-naphthyridine-2-carboxylic acid (5-chloro-2-methoxy-phenylcarbamoyl)methyl ester], `CNC(=O)CNc1c2c(nc3ccccc13)CCN(CC(=O)Nc1cc(Cl)ccc1OC)C2` [Compound 8, N-(5-Chloro-2-methoxyphenyl)-2-[10-(methyl-carbamoylmethylamino)-3,4-dihydro-1H-benzo[b]-1,6-naphthyridin-2-yl]acetamide] is lower in IC50: > 1000 nM for the first, 100 to 1000 nM for the second.

`COc1ccc(Cl)cc1NC(=O)CN1CCc2nc3ccccc3c(N3CCN(CCO)CC3)c2C1` [Compound 10, N-(5-Chloro-2-methoxyphenyl)-2-{10-[4-(2-hydroxyethyl)-piperazin-1-yl]-3,4-dihydro-1H-benzo[b]-1,6-naphthyridin-2-yl}acetamide] and `COc1ccc(Cl)cc1NC(=O)CN1CCc2nc3ccccc3c(NCC(=O)N3CCCC3)c2C1` [Compound 12, N-(5-Chloro-2-methoxyphenyl)-2-[10-(2-oxo-2-pyrrolidin-1-ylethylamino)-3,4-dihydro-1H-benzo[b]-1,6-naphthyridin-2-yl]acetamide] fall in the same range of IC50: 100 to 1000 nM for the first, 100 to 1000 nM for the second.

`COc1ccc(Cl)cc1NC(=O)CN1CCc2nc3ccccc3c(NCc3nc4ccccc4[nH]3)c2C1` [Compound 11, 2-{10-[(1H-Benzimidazol-2-ylmethyl)amino]-3,4-dihydro-1H-benzo[b]-1,6-naphthyridin-2-yl}-N-(5-chloro-2-methoxyphenyl)acetamide] and `COc1ccc(Cl)cc1NC(=O)CN1CCc2nc3ccccc3c(Nc3ccccc3)c2C1` [Compound 22, N-(5-Chloro-2-methoxyphenyl)-2-(10-phenylamino-3,4-dihydro-1H-benzo[b]-1,6-naphthyridin-2-yl)acetamide] cannot be ordered by IC50: > 1000 nM for the first, > 1000 nM for the second.

`COc1ccc(Cl)cc1NC(=O)CN1CCc2nc3ccccc3c(NCC(=O)N3CCCCC3)c2C1` [Compound 13, N-(5-Chloro-2-methoxyphenyl)-2-[10-(2-oxo-2-piperidin-1-ylethylamino)-3,4-dihydro-1H-benzo[b]-1,6-naphthyridin-2-yl]acetamide] and `COc1ccc(Cl)cc1NC(=O)CN1CCc2nc3ccccc3c(NCC(=O)N3CCOCC3)c2C1` [Compound 14, N-(5-Chloro-2-methoxyphenyl)-2-[10-(2-morpholin-4-yl-2-oxoethylamino)-3,4-dihydro-1H-benzo[b]-1,6-naphthyridin-2-yl]acetamide] fall in the same range of IC50: 100 to 1000 nM for the first, 100 to 1000 nM for the second.

First: COc1ccc(Cl)cc1NC(=O)CN1CCc2nc3ccccc3c(NCC(=O)NC3CCCCC3)c2C1 [Compound 15, N-(5-Chloro-2-methoxyphenyl)-2-[10-(cyclohexyl-carbamoylmethylamino)-3,4-dihydro-1H-benzo[b]-1,6-naphthyridin-2-yl]acetamide]
Second: CCN(CC)C(=O)CNc1c2c(nc3ccccc13)CCN(CC(=O)Nc1cc(Cl)ccc1OC)C2 [Compound 18, N-(5-Chloro-2-methoxyphenyl)-2-[10-(diethyl-carbamoylmethylamino)-3,4-dihydro-1H-benzo[b]-1,6-naphthyridin-2-yl]acetamide]
The IC50 of the first is higher: > 1000 nM for the first, 100 to 1000 nM for the second.

`COc1ccc(Cl)cc1NC(=O)CN1CCc2nc3ccccc3c(NCC(=O)N3CCN(C(C)C)CC3)c2C1` [Compound 17, N-(5-Chloro-2-methoxyphenyl)-2-{10-[2-(4-isopropyl-piperazin-1-yl)-2-oxoethylamino]-3,4-dihydro-1H-benzo-[b]-1,6-naphthyridin-2-yl}acetamide] and `COc1ccc(Cl)cc1NC(=O)CN1CCc2nc3ccccc3c(NCC(=O)N3CCN(Cc4ccccc4)CC3)c2C1` [Compound 19, 2-{10-[2-(4-Benzylpiperazin-1-yl)-2-oxoethylamino]-3,4-dihydro-1H-benzo[b]-1,6-naphthyridin-2-yl}-N-(5-chloro-2-methoxyphenyl)acetamide] fall in the same range of IC50: 100 to 1000 nM for the first, 100 to 1000 nM for the second.

`COc1ccc(Cl)cc1NC(=O)CN1CCc2nc3ccccc3c(Nc3ccncc3)c2C1` [Compound 20, N-(5-Chloro-2-methoxyphenyl)-2-[10-(pyridin-4-ylamino)-3,4-dihydro-1H-benzo[b]-1,6-naphthyridin-2-yl]acetamide] and `COc1ccc(Cl)cc1NC(=O)CN1CCc2nc3ccccc3c(Nc3cccnc3)c2C1` [Compound 21, N-(5-Chloro-2-methoxyphenyl)-2-[10-(pyridin-3-ylamino)-3,4-dihydro-1H-benzo[b]-1,6-naphthyridin-2-yl]acetamide] cannot be ordered by IC50: > 1000 nM for the first, > 1000 nM for the second.

`COc1ccc(Cl)cc1NC(=O)CN1CCc2nc3ccccc3c(Nc3ccccn3)c2C1` [Compound 23, N-(5-Chloro-2-methoxyphenyl)-2-[10-(pyridin-2-ylamino)-3,4-dihydro-1H-benzo[b]-1,6-naphthyridin-2-yl]acetamide] and `COc1ccc(Nc2c3c(nc4ccccc24)CCN(CC(=O)Nc2cc(Cl)ccc2OC)C3)cc1` [Compound 24, N-(5-Chloro-2-methoxyphenyl)-2-[10-(4-methoxy-phenylamino)-3,4-dihydro-1H-benzo[b]-1,6-naphthyridin-2-yl]acetamide] cannot be ordered by IC50: > 1000 nM for the first, > 1000 nM for the second.

Same assay, conditions: at 3E−5M; LPC 75 μM

Point of comparison: `Nc1c2c(nc3ccccc13)CCN(CC(=O)Nc1cc(Cl)ccc1Cl)C2` [Compound 3, 2-(10-Amino-3,4-dihydro-1H-benzo[b]-1,6-naphthyridin-2-yl)-N-(2,5-dichlorophenyl)acetamide], “% (ctrl 3E−5M)” value 79%. Against it:
- COc1ccc(Cl)cc1NC(=O)COC(=O)N1CCc2nc3ccccc3c(NCCN(C)C)c2C1 [Compound 6, 10-(2-Dimethylaminoethylamino)-3,4-dihydro-1H-benzo[b]-1,6-naphthyridine-2-carboxylic acid (5-chloro-2-methoxyphenylcarbamoyl)methyl ester] — lower, −9%
